Experimental data: patent US5399543A, “3-[4-(phenylmethoxy)phenyl]-1-substituted-6-haloalkyl-uracil herbicides” (FMC Corporation, priority 1993, dated 1995)

What was measured:
Chickweed [1] = assay: Preemergence herbicidal activity, chickweed; type: in vivo; conditions: Stellaria media, pre-emergence, 0.3 kg/ha, after 17-21 days, read-out: Preemergence herbicidal activity (% control), Chickweed
Experimental: (§1) The 3-[4-(phenylmethoxy)phenyl]-1-substituted-6-haloalkyluracil herbicides of this invention were tested for pre- and postemergence herbicidal activity using a variety of crops and weeds. The test plants included soybean (Glycine max var. Williams), field corn (Zea mays var. Agway 425X), wheat (Triticum aestivum var. Wheaton), morningglory (Ipomea lacunosa or Ipomea hederacea), velvetleaf (Abutilon theophrasti), green foxtail (Setaria viridis), Johnsongrass (Sorghum halepense), blackgrass (Aloepecurus myosuroides), common chickweed (Stellaria media), and common cocklebur (Xanthium pensylvanicum).
(§2) For preemergence testing, two disposable fiber flats (8 cm×15 cm×25 cm) for each rate of application of each candidate herbicide were filled to an approximate depth of 6.5 cm with steam-sterilized sandy loam soil. The soil was leveled and impressed with a template to provide five evenly spaced furrows 13 cm long and 0.5 cm deep in each flat. Seeds of soybean, wheat, corn, green foxtail, and johnsongrass were planted in the furrows of the first flat, and seeds of velvetleaf, morningglory, common chickweed, cocklebur, and blackgrass were planted in the furrows of the second flat. The five-row template was employed to firmly press the seeds into place. A topping soil of equal portions of sand and sandy loam soil was placed uniformly on top of each flat to a depth of approximately 0.5 cm. Flats for postemergence testing were prepared in the same manner except that they were planted 8-12 days prior to the preemergence flats and were placed in a greenhouse and watered, thus allowing the seeds to germinate and the foliage to develop.
(§3) In both pre- and postemergence tests, a stock solution of the candidate herbicide was prepared by dissolving 0.27 g of the compound in 20 mL of water/acetone (50/50) containing 0.5% v/v sorbitan monolaurate. For an application rate of 3000 g/ha of herbicide a 10 mL portion of the stock solution was diluted with water/acetone (50/50) to 45 mL.
(§4) The preemergence flats were initially subjected to a light water spray. The four flats were placed two by two along a conveyor belt (i.e., the two preemergence followed by the two postemergence flats). The conveyor belt fed under a spray nozzle mounted about ten inches above the postemergent foliage. The preemergent flats were elevated on the belt so that the soil surface was at the same level below the spray nozzle as the foliage canopy of the postemergent plants. The spray of herbicidal solution was commenced and once stabilized, the flats were passed under the spray at a speed to receive a coverage equivalent of 1000 L/ha. At this coverage the application rates are those shown in the above table for the individual herbicidal solutions. The preemergence flats were watered immediately thereafter, placed in the greenhouse and watered regularly at the soil surface. The postemergence flats were immediately placed in the greenhouse and not watered until 24 hours after treatment with the test solution. Thereafter they were regularly watered at ground level. After 17-21 days the plants were examined and the phytotoxicity data were recorded.
(§5) Herbicidal activity data at selected application rates are given for various compounds of this invention in Table 2 and Table 3. The test compounds are identified by numbers which correspond to those in Table 1.
(§6) Phytotoxicity data were taken as percent control. Percent control was determined by a method similar to the 0 to 100 rating system disclosed in "Research Methods in Weed Science," 2nd ed., B. Truelove, Ed.; Southern Weed Science Society; Auburn University, Auburn, Ala., 1977.

Velvetleaf [2] = assay: Postemergence herbicidal activity, velvetleaf; type: in vivo; conditions: Abutilon theophrasti, post-emergence, 0.3 kg/ha, after 17-21 days, read-out: Postemergence herbicidal activity (% control), Velvetleaf
Experimental: as §1, §2, §3, §4, §5, §6

Johnsongrass [3] = assay: Postemergence herbicidal activity, johnsongrass; type: in vivo; conditions: Sorghum halepense, post-emergence, 0.3 kg/ha, after 17-21 days, read-out: Postemergence herbicidal activity (% control), Johnsongrass
Experimental: as §1, §2, §3, §4, §5, §6

Wheat [4] = assay: Postemergence herbicidal activity, wheat; type: in vivo, Triticum aestivum var. Wheaton; conditions: Triticum aestivum, post-emergence, 0.3 kg/ha, after 17-21 days, read-out: Postemergence herbicidal activity (% control), Wheat
Experimental: as §1, §2, §3, §4, §5, §6

Corn [5] = assay: Postemergence herbicidal activity, corn; type: in vivo, Zea mays var. Agway 425X; conditions: Zea mays, post-emergence, 0.3 kg/ha, after 17-21 days, read-out: Postemergence herbicidal activity (% control), Corn
Experimental: as §1, §2, §3, §4, §5, §6

Wheat [6] = assay: Preemergence herbicidal activity, wheat; type: in vivo, Triticum aestivum var. Wheaton; conditions: Triticum aestivum, pre-emergence, 0.3 kg/ha, after 17-21 days, read-out: Preemergence herbicidal activity (% control), Wheat
Experimental: as §1, §2, §3, §4, §5, §6

Corn [7] = assay: Preemergence herbicidal activity, corn; type: in vivo, Zea mays var. Agway 425X; conditions: Zea mays, pre-emergence, 0.3 kg/ha, after 17-21 days, read-out: Preemergence herbicidal activity (% control), Corn
Experimental: as §1, §2, §3, §4, §5, §6

Blackgrass [8] = assay: Preemergence herbicidal activity, blackgrass; type: in vivo, Aloepecurus myosuroides; conditions: Alopecurus myosuroides, pre-emergence, 0.3 kg/ha, after 17-21 days, read-out: Preemergence herbicidal activity (% control), Blackgrass
Experimental: as §1, §2, §3, §4, §5, §6

Blackgrass [9] = assay: Postemergence herbicidal activity, blackgrass; type: in vivo, Aloepecurus myosuroides; conditions: Alopecurus myosuroides, post-emergence, 0.3 kg/ha, after 17-21 days, read-out: Postemergence herbicidal activity (% control), Blackgrass
Experimental: as §1, §2, §3, §4, §5, §6

Johnsongrass [10] = assay: Preemergence herbicidal activity, johnsongrass; type: in vivo; conditions: Sorghum halepense, pre-emergence, 0.3 kg/ha, after 17-21 days, read-out: Preemergence herbicidal activity (% control), Johnsongrass
Experimental: as §1, §2, §3, §4, §5, §6

Cocklebur [11] = assay: Preemergence herbicidal activity, cocklebur; type: in vivo, Xanthium pensylvanicum; conditions: Xanthium strumarium, pre-emergence, 0.3 kg/ha, after 17-21 days, read-out: Preemergence herbicidal activity (% control), Cocklebur
Experimental: as §1, §2, §3, §4, §5, §6

Cocklebur [12] = assay: Postemergence herbicidal activity, cocklebur; type: in vivo, Xanthium pensylvanicum; conditions: Xanthium strumarium, post-emergence, 0.3 kg/ha, after 17-21 days, read-out: Postemergence herbicidal activity (% control), Cocklebur
Experimental: as §1, §2, §3, §4, §5, §6

Green foxtail [13] = assay: Postemergence herbicidal activity, green foxtail; type: in vivo; conditions: Setaria viridis, post-emergence, 0.3 kg/ha, after 17-21 days, read-out: Postemergence herbicidal activity (% control), Green foxtail
Experimental: as §1, §2, §3, §4, §5, §6

Soybean [14] = assay: Preemergence herbicidal activity, soybean; type: in vivo, Glycine max var. Williams; conditions: Glycine max, pre-emergence, 0.3 kg/ha, after 17-21 days, read-out: Preemergence herbicidal activity (% control), Soybean
Experimental: as §1, §2, §3, §4, §5, §6

Soybean [15] = assay: Postemergence herbicidal activity, soybean; type: in vivo, Glycine max var. Williams; conditions: Glycine max, post-emergence, 0.3 kg/ha, after 17-21 days, read-out: Postemergence herbicidal activity (% control), Soybean
Experimental: as §1, §2, §3, §4, §5, §6

Morningglory [16] = assay: Preemergence herbicidal activity, morningglory; type: in vivo, Ipomea lacunosa or Ipomea hederacea; conditions: Ipomoea, pre-emergence, 0.3 kg/ha, after 17-21 days, read-out: Preemergence herbicidal activity (% control), Morningglory
Experimental: as §1, §2, §3, §4, §5, §6

Velvetleaf [17] = assay: Preemergence herbicidal activity, velvetleaf; type: in vivo; conditions: Abutilon theophrasti, pre-emergence, 0.3 kg/ha, after 17-21 days, read-out: Preemergence herbicidal activity (% control), Velvetleaf
Experimental: as §1, §2, §3, §4, §5, §6

Chickweed [18] = assay: Postemergence herbicidal activity, chickweed; type: in vivo; conditions: Stellaria media, post-emergence, 0.3 kg/ha, after 17-21 days, read-out: Postemergence herbicidal activity (% control), Chickweed
Experimental: as §1, §2, §3, §4, §5, §6

Green foxtail [19] = assay: Preemergence herbicidal activity, green foxtail; type: in vivo; conditions: Setaria viridis, pre-emergence, 0.3 kg/ha, after 17-21 days, read-out: Preemergence herbicidal activity (% control), Green foxtail
Experimental: as §1, §2, §3, §4, §5, §6

Morningglory [20] = assay: Postemergence herbicidal activity, morningglory; type: in vivo, Ipomea lacunosa or Ipomea hederacea; conditions: Ipomoea, post-emergence, 0.3 kg/ha, after 17-21 days, read-out: Postemergence herbicidal activity (% control), Morningglory
Experimental: as §1, §2, §3, §4, §5, §6

Structure (SMILES) | activity at 300 g/ha (Chickweed [1]) [%] | activity at 300 g/ha (Velvetleaf [2]) [%] | activity at 300 g/ha (Johnsongrass [3]) [%] | activity at 300 g/ha (Wheat [4]) [%] | activity at 300 g/ha (Corn [5]) [%] | activity at 300 g/ha (Wheat [6]) [%] | activity at 300 g/ha (Corn [7]) [%] | activity at 300 g/ha (Blackgrass [8]) [%] | activity at 300 g/ha (Blackgrass [9]) [%] | activity at 300 g/ha (Johnsongrass [10]) [%] | activity at 300 g/ha (Cocklebur [11]) [%] | activity at 300 g/ha (Cocklebur [12]) [%] | activity at 300 g/ha (Green foxtail [13]) [%] | activity at 300 g/ha (Soybean [14]) [%] | activity at 300 g/ha (Soybean [15]) [%] | activity at 300 g/ha (Morningglory [16]) [%] | activity at 300 g/ha (Velvetleaf [17]) [%] | activity at 300 g/ha (Chickweed [18]) [%] | activity at 300 g/ha (Green foxtail [19]) [%] | activity at 300 g/ha (Morningglory [20]) [%]
Cc1cc(OCc2ccccc2)ccc1-n1c(=O)cc(C(F)(F)F)n(C)c1=O [Compound 12] | 0 | 30 | 0 | 0 | 0 | 0 | 40 | 0 | 0 | 60 | 0 | 0 | 50 | 10 | 20 | 10 | 60 | 0 | 80 | 20
Cc1cc(OCc2ccc(Cl)cc2)ccc1-n1c(=O)cc(C(F)(F)F)n(C)c1=O [Compound 13] | 10 | 100 | 20 | 0 | 40 | 0 | 30 | 30 | 20 | 90 | 0 | 90 | 80 | 40 | 30 | 60 | 100 | 30 | 100 | 100
